ChEMBL document CHEMBL3997838, “Chemical constituents from Sophora tonkinensis and their glucose transporter 4 translocation activities” (Bioorg Med Chem Lett, 2017)
Activity calls are given as the source filed them. The calls are words filed in the database; no cut-off is given here.

target: T1, Solute carrier family 2, facilitated glucose transporter member 4 (Rattus norvegicus) (UniProt P19357); test: Enhancement of GLUT4 translocation at plasma membrane of rat L6 cells expressing pIRAP-mOrange after 30 mins by laser-scanning confocal microscopic method
T1 sequence (whole entry): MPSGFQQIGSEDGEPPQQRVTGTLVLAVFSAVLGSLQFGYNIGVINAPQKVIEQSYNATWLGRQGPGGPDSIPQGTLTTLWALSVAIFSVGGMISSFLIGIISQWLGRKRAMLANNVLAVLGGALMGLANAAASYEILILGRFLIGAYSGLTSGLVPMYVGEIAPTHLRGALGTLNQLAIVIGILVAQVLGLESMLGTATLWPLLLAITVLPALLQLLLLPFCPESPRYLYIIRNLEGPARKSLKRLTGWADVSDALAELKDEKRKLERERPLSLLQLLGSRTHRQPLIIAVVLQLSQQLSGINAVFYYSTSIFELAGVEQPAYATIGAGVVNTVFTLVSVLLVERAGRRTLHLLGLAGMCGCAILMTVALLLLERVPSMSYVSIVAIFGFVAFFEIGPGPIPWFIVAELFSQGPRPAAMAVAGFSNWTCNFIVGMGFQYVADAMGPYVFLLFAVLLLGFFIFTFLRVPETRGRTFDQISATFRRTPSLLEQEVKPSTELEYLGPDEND

Row | SMILES | Activity
1 | CC(C)=CCc1cc([C@@H]2CC(=O)c3ccc(O)c(CC=C(C)C)c3O2)cc(CC=C(C)C)c1O | Dose-dependent effect

target: T1, Solute carrier family 2, facilitated glucose transporter member 4 (Rattus norvegicus); test: Enhancement of GLUT4 translocation at plasma membrane of rat L6 cells expressing pIRAP-mOrange at 10 uM after 30 mins by fluorescence assay relative to control

Row | SMILES | Activity | fold change (FC)
2 | Oc1ccc2c(c1)OC[C@H]1c3cc4c(cc3O[C@@H]21)OCO4 | inactive | –
3 | O=c1c(O)c(-c2ccc(O)c(O)c2)oc2cc(O)cc(O)c12 | inactive | –
4 | OC[C@H]1O[C@@H](Oc2ccc3c(c2)OC[C@H]2c4cc5c(cc4O[C@@H]32)OCO5)[C@H](O)[C@@H](O)[C@@H]1O | inactive | –
5 | CC(=O)OC[C@H]1O[C@@H](Oc2ccc3c(c2)OC[C@H]2c4cc5c(cc4O[C@@H]32)OCO5)[C@H](O)[C@@H](O)[C@@H]1O | inactive | –
6 | CC(C)=CCc1c2c(cc3c1O[C@H](c1ccc(O)cc1O)CC3=O)C=CC(C)(C)O2 | – | 1.35 to 2.75
7 | CC(C)=CCc1cc([C@@H]2CC(=O)c3ccc(O)c(CC=C(C)C)c3O2)cc2c1OC(C)(C)C=C2 | – | 1.35 to 2.75
8 | COc1ccc2c(c1)O[C@H]1c3ccc(O)cc3OC[C@@H]21 | inactive | –
9 | CC(C)=CCc1c(O)cc(O)c2c1OC[C@H]1c3cc4c(cc3O[C@@H]21)OCO4 | – | 0.79
10 | CC(C)=CCc1c(O)c(CC=C(C)C)c2oc(-c3ccc(O)cc3)c(O)c(=O)c2c1O | – | 1.35 to 2.75
11 | CC(C)=CCc1cc([C@@H]2CC(=O)c3ccc(O)c(CC=C(C)C)c3O2)cc(CC=C(C)C)c1O | – | 2.75
12 | CC(C)=CCc1cc([C@@H]2CC(=O)c3ccc(O)c(CC=C(C)C)c3O2)ccc1O | – | 1.35 to 2.75
13 | CC(C)=CCc1cc2c(c(CC=C(C)C)c1O)O[C@H](c1ccc(O)cc1)CC2=O | – | 1.35 to 2.75

target: T1, Solute carrier family 2, facilitated glucose transporter member 4 (Rattus norvegicus); test: Enhancement of GLUT4 translocation at plasma membrane of rat L6 cells expressing pIRAP-mOrange at […] after 30 mins by laser-scanning confocal microscopic method relative to control

Row | SMILES | fold change (FC)
14 | CC(C)=CCc1cc([C@@H]2CC(=O)c3ccc(O)c(CC=C(C)C)c3O2)cc(CC=C(C)C)c1O | 2.7
